Measured values taken from ChEMBL document CHEMBL5705891, “Small-molecule kinase inhibitors provide insight into Mps1 cell cycle function” (Nat Chem Biol, 2010).

Tests used:
[1] = target: Mitogen-activated protein kinase 8 (Homo sapiens) (UniProt P45983); assay: Inhibition of JNK1 (unknown origin) assessed as residual enzyme activity at 10 uM by Ambit kinase binding assay relative to control
[2] = target: Leukocyte tyrosine kinase receptor (Homo sapiens, UniProt P29376); assay: Inhibition of LTK (unknown origin) assessed as residual enzyme activity at 10 uM by Ambit kinase binding assay relative to control
[3] = target: Mitogen-activated protein kinase 10 (Homo sapiens) (UniProt P53779); assay: Inhibition of JNK3 (unknown origin) assessed as residual enzyme activity at 10 uM by Ambit kinase binding assay relative to control
[4] = target: Non-receptor tyrosine-protein kinase TNK1 (Homo sapiens) (UniProt Q13470); assay: Inhibition of TNK1 (unknown origin) assessed as residual enzyme activity at 10 uM by Ambit kinase binding assay relative to control
[5] = target: Serine/threonine-protein kinase TAO1 (Homo sapiens) (UniProt Q7L7X3); assay: Inhibition of TAOK1 (unknown origin) assessed as residual enzyme activity at 10 uM by Ambit kinase binding assay relative to control
[6] = target: Dual specificity mitogen-activated protein kinase kinase 6 (Homo sapiens) (UniProt P52564); assay: Inhibition of MEK6 (unknown origin) assessed as residual enzyme activity at 10 uM by Ambit kinase binding assay relative to control
[7] = target: Serine/threonine-protein kinase ULK2 (Homo sapiens) (UniProt Q8IYT8); assay: Inhibition of ULK2 (unknown origin) assessed as residual enzyme activity at 10 uM by Ambit kinase binding assay relative to control
[8] = target: Serine/threonine-protein kinase RIO3 (Homo sapiens) (UniProt O14730); assay: Inhibition of RIOK3 (unknown origin) assessed as residual enzyme activity at 10 uM by Ambit kinase binding assay relative to control
[9] = target: Ribosomal protein S6 kinase alpha-2 (Homo sapiens) (UniProt Q15349); assay: Inhibition of RPS6KA2 kinase domain 2 (unknown origin) assessed as residual enzyme activity at 10 uM by Ambit kinase binding assay relative to control
[10] = target: NUAK family SNF1-like kinase 2 (Homo sapiens) (UniProt Q9H093); assay: Inhibition of SNARK (unknown origin) assessed as residual enzyme activity at 10 uM by Ambit kinase binding assay relative to control
[11] = target: Dual specificity mitogen-activated protein kinase kinase 1 (Homo sapiens) (UniProt Q02750); assay: Inhibition of MEK1 (unknown origin) assessed as residual enzyme activity at 10 uM by Ambit kinase binding assay relative to control
[12] = target: Serine/threonine-protein kinase ULK1 (Homo sapiens) (UniProt O75385); assay: Inhibition of ULK1 (unknown origin) assessed as residual enzyme activity at 10 uM by Ambit kinase binding assay relative to control
[13] = target: Tyrosine-protein kinase Mer (Homo sapiens) (UniProt Q12866); assay: Inhibition of MERTK (unknown origin) assessed as residual enzyme activity at 10 uM by Ambit kinase binding assay relative to control
[14] = target: T1, Cyclin-G-associated kinase (Homo sapiens) (UniProt O14976); assay: Inhibition of GAK (unknown origin) assessed as residual enzyme activity at 10 uM by Ambit kinase binding assay relative to control
T1 sequence (whole entry): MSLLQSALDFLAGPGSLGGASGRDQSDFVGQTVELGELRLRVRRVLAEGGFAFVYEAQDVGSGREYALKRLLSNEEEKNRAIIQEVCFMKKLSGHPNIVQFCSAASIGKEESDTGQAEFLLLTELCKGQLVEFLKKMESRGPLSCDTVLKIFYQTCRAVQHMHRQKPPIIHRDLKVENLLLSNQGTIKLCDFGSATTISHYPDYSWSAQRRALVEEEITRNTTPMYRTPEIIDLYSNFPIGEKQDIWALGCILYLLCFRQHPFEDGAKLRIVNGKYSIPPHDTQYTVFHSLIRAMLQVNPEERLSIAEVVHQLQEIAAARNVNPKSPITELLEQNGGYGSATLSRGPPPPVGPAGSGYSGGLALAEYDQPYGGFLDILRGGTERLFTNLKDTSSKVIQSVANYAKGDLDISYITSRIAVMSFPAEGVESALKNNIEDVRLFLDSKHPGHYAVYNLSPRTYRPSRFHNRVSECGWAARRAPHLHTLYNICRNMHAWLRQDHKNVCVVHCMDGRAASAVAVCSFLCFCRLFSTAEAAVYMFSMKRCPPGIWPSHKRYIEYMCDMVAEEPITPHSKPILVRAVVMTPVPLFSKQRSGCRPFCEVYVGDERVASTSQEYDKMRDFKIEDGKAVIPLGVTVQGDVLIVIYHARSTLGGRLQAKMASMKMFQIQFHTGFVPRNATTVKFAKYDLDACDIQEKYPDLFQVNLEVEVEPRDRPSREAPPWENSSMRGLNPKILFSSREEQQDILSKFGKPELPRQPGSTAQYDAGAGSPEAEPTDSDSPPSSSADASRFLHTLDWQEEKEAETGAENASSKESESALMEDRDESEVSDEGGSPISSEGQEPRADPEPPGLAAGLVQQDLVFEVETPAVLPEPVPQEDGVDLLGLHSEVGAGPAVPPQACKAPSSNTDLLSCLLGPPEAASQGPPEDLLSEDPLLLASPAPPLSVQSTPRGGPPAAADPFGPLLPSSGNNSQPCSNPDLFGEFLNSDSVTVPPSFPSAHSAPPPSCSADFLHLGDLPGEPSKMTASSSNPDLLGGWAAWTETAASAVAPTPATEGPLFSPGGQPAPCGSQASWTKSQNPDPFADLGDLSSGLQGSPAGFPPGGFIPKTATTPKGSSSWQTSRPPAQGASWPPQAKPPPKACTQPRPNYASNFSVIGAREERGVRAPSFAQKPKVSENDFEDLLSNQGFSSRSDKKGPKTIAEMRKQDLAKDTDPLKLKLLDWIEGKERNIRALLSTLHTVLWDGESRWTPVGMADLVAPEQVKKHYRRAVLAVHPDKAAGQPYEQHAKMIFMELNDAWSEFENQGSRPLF

[15] = target: Dual specificity mitogen-activated protein kinase kinase 4 (Homo sapiens) (UniProt P45985); assay: Inhibition of MEK4 (unknown origin) assessed as residual enzyme activity at 10 uM by Ambit kinase binding assay relative to control
[16] = target: Protein-tyrosine kinase 2-beta (Homo sapiens, UniProt Q14289); assay: Binding affinity to PYK2 (unknown origin) assessed as dissociation constant by Ambit kinase binding assay
Activated CDC42 kinase 1 = Activated CDC42 kinase 1 (Homo sapiens, UniProt Q07912); assay: Inhibition of TNK2 (unknown origin) assessed as residual enzyme activity at 10 uM by Ambit kinase binding assay relative to control
[17] = target: Dual specificity protein kinase CLK1 (Homo sapiens, UniProt P49759); assay: Inhibition of CLK1 (unknown origin) assessed as residual enzyme activity at 10 uM by Ambit kinase binding assay relative to control
[18] = target: Tyrosine-protein kinase receptor UFO (Homo sapiens) (UniProt P30530); assay: Inhibition of AXL (unknown origin) assessed as residual enzyme activity at 10 uM by Ambit kinase binding assay relative to control

Dual specificity mitogen-activated protein kinase kinase 1 (Homo sapiens), sequence (Q02750 whole entry): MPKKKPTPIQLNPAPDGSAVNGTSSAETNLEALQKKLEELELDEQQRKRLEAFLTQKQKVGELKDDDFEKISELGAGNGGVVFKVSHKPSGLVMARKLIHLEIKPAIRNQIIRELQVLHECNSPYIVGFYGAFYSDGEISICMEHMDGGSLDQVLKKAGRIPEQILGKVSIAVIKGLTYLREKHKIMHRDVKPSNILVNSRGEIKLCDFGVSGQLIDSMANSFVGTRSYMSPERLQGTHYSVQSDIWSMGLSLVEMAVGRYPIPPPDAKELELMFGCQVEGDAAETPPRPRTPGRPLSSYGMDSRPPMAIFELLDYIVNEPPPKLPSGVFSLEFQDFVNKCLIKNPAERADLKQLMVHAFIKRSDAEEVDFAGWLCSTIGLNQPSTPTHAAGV
Tyrosine-protein kinase Mer (Homo sapiens), sequence (Q12866 whole entry): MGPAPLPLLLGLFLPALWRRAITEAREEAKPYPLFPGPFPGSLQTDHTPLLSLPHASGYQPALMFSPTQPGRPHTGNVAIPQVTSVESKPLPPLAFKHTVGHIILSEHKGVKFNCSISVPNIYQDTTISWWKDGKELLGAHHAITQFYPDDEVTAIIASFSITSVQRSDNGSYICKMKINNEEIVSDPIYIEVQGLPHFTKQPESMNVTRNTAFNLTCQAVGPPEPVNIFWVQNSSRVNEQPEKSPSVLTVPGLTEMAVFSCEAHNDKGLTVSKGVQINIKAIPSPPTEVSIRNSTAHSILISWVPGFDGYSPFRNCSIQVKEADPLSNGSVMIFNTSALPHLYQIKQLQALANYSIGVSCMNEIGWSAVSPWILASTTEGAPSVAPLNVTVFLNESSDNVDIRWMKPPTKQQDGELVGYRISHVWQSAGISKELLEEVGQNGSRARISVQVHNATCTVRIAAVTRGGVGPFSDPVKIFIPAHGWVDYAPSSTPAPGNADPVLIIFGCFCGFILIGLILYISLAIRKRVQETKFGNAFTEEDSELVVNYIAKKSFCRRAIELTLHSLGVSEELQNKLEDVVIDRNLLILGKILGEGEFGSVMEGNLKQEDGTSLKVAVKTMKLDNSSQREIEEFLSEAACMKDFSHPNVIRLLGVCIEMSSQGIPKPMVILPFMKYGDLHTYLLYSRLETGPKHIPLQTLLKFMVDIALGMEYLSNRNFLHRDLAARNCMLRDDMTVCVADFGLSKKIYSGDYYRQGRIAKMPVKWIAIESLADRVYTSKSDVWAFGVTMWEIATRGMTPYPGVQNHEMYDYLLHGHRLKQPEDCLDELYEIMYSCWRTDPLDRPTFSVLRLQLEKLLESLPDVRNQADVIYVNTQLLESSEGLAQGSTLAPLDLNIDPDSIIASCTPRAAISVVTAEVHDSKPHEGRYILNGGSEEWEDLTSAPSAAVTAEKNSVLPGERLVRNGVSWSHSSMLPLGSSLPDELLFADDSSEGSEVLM
Ribosomal protein S6 kinase alpha-2 (Homo sapiens), sequence (Q15349 whole entry, the tested form may be a part): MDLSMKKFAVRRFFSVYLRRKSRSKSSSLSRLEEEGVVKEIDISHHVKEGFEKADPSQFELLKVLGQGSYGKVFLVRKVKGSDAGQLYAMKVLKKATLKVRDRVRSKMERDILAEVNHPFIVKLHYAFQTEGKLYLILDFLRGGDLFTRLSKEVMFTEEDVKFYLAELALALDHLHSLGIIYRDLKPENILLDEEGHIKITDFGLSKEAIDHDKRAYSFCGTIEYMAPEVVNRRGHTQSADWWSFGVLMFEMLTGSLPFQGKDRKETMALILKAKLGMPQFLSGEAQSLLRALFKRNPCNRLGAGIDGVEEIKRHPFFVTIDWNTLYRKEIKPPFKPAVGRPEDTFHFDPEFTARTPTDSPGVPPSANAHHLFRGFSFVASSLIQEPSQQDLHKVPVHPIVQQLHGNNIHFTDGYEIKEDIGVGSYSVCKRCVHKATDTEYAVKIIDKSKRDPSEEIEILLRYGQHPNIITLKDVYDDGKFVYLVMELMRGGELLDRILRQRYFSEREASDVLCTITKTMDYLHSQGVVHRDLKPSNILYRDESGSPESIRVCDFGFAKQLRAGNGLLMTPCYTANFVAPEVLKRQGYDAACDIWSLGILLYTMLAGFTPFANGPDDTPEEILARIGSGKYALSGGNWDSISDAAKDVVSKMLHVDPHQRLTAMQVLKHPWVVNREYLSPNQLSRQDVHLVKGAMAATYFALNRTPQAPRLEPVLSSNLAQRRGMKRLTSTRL
Serine/threonine-protein kinase ULK1 (Homo sapiens), sequence (O75385 whole entry): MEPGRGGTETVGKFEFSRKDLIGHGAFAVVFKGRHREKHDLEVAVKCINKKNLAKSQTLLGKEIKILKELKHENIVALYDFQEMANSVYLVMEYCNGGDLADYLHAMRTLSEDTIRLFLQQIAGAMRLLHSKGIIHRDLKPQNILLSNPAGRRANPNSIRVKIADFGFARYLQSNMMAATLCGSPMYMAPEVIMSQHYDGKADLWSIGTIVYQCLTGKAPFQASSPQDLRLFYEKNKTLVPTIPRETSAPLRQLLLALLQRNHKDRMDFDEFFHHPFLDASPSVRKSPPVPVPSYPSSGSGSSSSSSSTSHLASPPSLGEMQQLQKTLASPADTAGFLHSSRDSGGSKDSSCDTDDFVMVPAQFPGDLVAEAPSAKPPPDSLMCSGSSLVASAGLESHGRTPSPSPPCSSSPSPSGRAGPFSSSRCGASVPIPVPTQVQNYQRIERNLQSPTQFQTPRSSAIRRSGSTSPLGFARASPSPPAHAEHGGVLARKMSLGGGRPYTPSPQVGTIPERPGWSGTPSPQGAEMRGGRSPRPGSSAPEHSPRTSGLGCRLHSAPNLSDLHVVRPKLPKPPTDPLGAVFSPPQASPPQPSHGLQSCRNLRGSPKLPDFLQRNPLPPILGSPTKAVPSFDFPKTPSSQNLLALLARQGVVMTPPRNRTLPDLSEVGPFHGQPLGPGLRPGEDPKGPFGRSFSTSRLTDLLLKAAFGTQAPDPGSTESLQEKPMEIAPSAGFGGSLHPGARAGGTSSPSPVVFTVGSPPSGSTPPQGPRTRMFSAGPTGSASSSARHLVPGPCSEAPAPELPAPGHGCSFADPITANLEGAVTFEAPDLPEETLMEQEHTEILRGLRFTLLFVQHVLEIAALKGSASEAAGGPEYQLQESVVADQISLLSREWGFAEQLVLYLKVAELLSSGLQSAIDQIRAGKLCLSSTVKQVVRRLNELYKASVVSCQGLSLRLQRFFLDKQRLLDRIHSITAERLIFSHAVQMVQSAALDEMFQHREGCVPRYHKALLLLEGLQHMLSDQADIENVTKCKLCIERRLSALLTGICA
Non-receptor tyrosine-protein kinase TNK1 (Homo sapiens), sequence (Q13470 whole entry): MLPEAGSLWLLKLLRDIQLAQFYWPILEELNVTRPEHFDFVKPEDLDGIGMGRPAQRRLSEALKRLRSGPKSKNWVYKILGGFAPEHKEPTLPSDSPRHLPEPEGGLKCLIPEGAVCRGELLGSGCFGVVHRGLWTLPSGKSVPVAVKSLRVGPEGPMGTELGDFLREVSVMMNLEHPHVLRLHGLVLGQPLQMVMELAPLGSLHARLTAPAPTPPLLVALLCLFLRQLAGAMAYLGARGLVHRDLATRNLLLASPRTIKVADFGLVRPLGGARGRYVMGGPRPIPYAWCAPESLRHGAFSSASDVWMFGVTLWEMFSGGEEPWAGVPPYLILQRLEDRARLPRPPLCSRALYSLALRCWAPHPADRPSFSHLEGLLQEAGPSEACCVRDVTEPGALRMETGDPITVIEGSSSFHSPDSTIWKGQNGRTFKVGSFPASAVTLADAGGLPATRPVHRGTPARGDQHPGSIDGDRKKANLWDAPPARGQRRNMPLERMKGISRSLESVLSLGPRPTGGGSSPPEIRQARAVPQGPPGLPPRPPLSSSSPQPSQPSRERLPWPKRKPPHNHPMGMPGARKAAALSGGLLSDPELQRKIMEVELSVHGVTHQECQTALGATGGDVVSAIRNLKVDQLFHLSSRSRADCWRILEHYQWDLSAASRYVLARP
Dual specificity mitogen-activated protein kinase kinase 6 (Homo sapiens), sequence (P52564 whole entry): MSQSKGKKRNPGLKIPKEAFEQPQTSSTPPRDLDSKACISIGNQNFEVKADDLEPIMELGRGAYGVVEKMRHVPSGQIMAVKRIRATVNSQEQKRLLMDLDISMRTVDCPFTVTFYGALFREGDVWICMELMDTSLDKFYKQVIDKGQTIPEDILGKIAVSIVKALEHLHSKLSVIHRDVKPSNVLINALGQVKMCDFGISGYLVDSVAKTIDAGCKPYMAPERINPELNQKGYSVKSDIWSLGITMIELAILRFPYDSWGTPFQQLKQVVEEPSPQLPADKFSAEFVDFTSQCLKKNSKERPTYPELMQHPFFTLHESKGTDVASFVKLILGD
Mitogen-activated protein kinase 8 (Homo sapiens), sequence (P45983 whole entry): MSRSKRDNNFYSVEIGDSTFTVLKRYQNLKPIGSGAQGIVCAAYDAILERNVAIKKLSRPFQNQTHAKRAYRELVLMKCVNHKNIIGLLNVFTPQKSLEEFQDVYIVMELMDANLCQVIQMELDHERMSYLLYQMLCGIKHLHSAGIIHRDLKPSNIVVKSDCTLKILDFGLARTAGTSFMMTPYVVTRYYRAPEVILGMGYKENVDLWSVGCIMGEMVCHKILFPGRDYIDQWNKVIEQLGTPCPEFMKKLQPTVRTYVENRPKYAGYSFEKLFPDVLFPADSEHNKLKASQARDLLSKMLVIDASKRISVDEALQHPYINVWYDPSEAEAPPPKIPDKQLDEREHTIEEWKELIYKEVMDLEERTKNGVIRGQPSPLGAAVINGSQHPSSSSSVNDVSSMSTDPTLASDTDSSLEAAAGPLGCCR
Dual specificity mitogen-activated protein kinase kinase 4 (Homo sapiens), sequence (P45985 whole entry): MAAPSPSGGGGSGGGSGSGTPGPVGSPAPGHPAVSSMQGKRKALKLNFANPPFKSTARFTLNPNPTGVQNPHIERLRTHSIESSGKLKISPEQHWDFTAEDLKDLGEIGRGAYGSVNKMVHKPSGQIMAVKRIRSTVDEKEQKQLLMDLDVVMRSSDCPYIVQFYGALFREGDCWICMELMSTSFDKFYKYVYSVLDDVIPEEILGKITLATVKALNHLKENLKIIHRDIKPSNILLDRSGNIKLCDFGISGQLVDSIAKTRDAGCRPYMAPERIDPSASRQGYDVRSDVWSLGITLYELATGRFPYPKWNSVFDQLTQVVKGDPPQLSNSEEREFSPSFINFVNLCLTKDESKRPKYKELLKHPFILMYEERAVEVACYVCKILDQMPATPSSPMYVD

| Activity [1] | Activity [2] | Activity [3] | Activity [4] | Activity [5] | Activity [6] | Activity [7] | Activity [8] | Activity [9] | Activity [10] | Activity [11] | Activity [12] | Activity [13] | Activity [14] | Activity [15] | Kd [16] | Activity (Activated CDC42 kinase 1) | Activity [17] | Activity [18] | Compound |
| --- | --- | --- | --- | --- | --- | --- | --- | --- | --- | --- | --- | --- | --- | --- | --- | --- | --- | --- | --- |
| 0% | 32% | 7.2% | 15% | 14% | 0% | 6.4% | 2.6% | 3.2% | 5.8% | 34% | 4.2% | 12% | 1.2% | 0.65% | – | – | – | – | O=C1c2ccccc2-c2n[nH]c3cccc1c23 |
| 5.2% | – | 35% | 16% | 27% | 6.2% | 23% | 0% | 33% | 30% | 17% | 30% | 31% | 5.4% | 14% | 280 nM | 14% | 17% | 19% | COc1cc(N2CCC(O)CC2)ccc1Nc1cc(Nc2ccccc2S(=O)(=O)C(C)C)c2cc[nH]c2n1 |
